Two compounds from US20260374792A1, “PHENYL-FREE BISCATIONIC QUATERNARY PHOSPHONIUM COMPOUNDS AS ANTIMICROBIAL AGENTS” (priority 2022, published 2026) can be followed below.

The test system of series [1] is red blood cells. Description: Red Blood Cell (RBC) Lysis Assay (lysis20). The settings on record: concentration inducing 20% RBC lysis; sheep blood, 1 hour, 37 °C. Type of series: cell-based, sheep. The method, then:
RBC lysis assays were performed on mechanically defibrinated sheep blood (Hemostat Labs: DSB030). An aliquot of 1.5 mL blood was placed into a microcentrifuge tube and centrifuged at 3,800 rpm for ten minutes. The supernatant was removed, and the cells were resuspended with 1 mL of phosphate-buffered saline (PBS). The suspension was centrifuged as described above, the supernatant was removed, and cells were resuspended 4 additional times in 1 mL PBS. The final cell suspension was diluted twentyfold with PBS. Compounds were serially diluted with PBS two-fold from stock solutions (1.0 mM) to yield 100 μL of twelve test concentrations on a flat-bottom 96-well plate (Corning, 351172), wherein the starting concentration of DMSO was 2.5%. To each of the wells, 100 μL of the twentyfold suspension dilution was then inoculated. TritonX (1% by volume) served as a positive control (100% lysis marker) and sterile PBS served as a negative control (0% lysis marker). Samples were then placed in an incubator at 37 °C and shaken at 200 rpm. After 1 hour, the samples were centrifuged at 3,800 rpm for ten minutes. The absorbance of the supernatant was measured with a UV spectrometer at a 540 nm wavelength. The concentration inducing 20% RBC lysis was then calculated for each compound based upon the absorbances of the TritonX and PBS controls. Aqueous DMSO controls were conducted as appropriate for each compound.
The potential cytotoxicity of the compounds was also considered with the evaluation of hemolysis (lysis20) assays with 20% lysis of red blood cells serving as an indicator of potentially toxic compounds. Finally, the bioactivity of these compounds were benchmarked against a commercial benzalkonium chloride source (BAC; 70% benzyldimethyldodecylammonium chloride, and 30% benzyldimethyltetradecylammonium chloride) as well as some previously reported disinfectant compounds from the inventors' groups; included were bisQPC ^PhP6P-10,10 as well as ^PhP2P-10,10 and 12(2)12. A detailed description of the experimental procedures used to evaluate bioactivity and hemolysis assays are described above.

Series [2] has as its system CA-MRSA (USA300-0114). Description: MIC against community-acquired methicillin-resistant S. aureus (CA-MRSA). Type of series: cell-based. The settings on record: Staphylococcus aureus, 72 h. The method, then: The term “minimum inhibitory concentration (MIC)” means the lowest concentration of an antimicrobial agent that will inhibit the visible growth of a microorganism after overnight incubation. MIC values against bacteria, for example, the Gram-positive Staphylococcus aureus and Enterococcus faecalis and the Gram-negative Escherichia coli and Pseudomonas aeruginosa were determined by standard methods. See also P. A. Wayne, Methods for Dilution Antimicrobial Tests for Bacteria that Grow Aerobically; Approved Standard, Ninth Edition, 2012, CLSI Document M07-A9, Vol. 32 No. 2.
Biological testing procedures were adapted from prior work by Melander and coworkers. For all biological assays, laboratory strains of methicillin-susceptible Staphylococcus aureus MSSA (SH1000), Staphylococcus aureus CA-MRSA (USA300-0114), Staphylococcus aureus HA-MRSA (ATCC 33591), Escherichia coli (MC4100), Enterococcus faecalis (OG1RF), Acinetobacter baumannii (ATCC 17978), were grown with shaking at 37 °C overnight from freezer stocks in 5 mL of the indicated media: SH1000, OG1RF, MC4100, USA300-0114, and ATCC 17978 were grown in BDTM Mueller-Hinton broth (MHB), whereas ATCC 33591 was grown in BDTM tryptic soy broth (TSB). The inoculum were then streaked onto Mueller-Hinton agar (MHA) plates and grown overnight at 37 °C. From the plates, single colonies were selected, diluted into 50 mL of fresh media and grown overnight at 37 °C with shaking for use in the MIC assays. Optical density (OD) measurements were obtained using a SpectraMax iD3 plate reader (Molecular Devices, United States).
Compounds were serially diluted two-fold from stock solutions (1.0 mM) to yield twelve 100 μL test concentrations, wherein the starting concentration of dimethyl sulfoxide (DMSO) was 2.5%. Overnight S. aureus, E. faecalis, E. coli, A. baumannii, USA300-0114 (CA-MRSA), and ATCC 33591 (HA-MRSA) cultures were diluted to ca. 10^6 CFU/mL in MHB or TSB and regrown to mid-exponential phase, as determined by optical density recorded at 600 nm (OD600). All cultures were then diluted again to ca. 10^6 CFU/mL and 100 μL were inoculated into each well of a U-bottom 96-well plate (Corning, 351177) containing 100 μL of compound solution. Plates were incubated statically at 37 °C for 72 hours upon which wells were evaluated visually for bacterial growth. The MIC was determined as the lowest concentration of compound resulting in no bacterial growth visible to the naked eye, based on the highest value in three independent experiments. Aqueous DMSO controls were conducted as appropriate for each compound.
The prepared library of biscationic amphiphilic compounds was assessed for performance as antibacterial disinfectants by determining the minimum inhibitory concentration (MIC) for each against a panel of bacteria. The bacteria selected for the study were chosen to evaluate the broad spectrum antimicrobial performance of the QPCs, and therefore, included both Gram-positive and Gram-negative bacterial strains, including those with known antimicrobial resistance mechanisms. These bacteria include the Gram-positive strains of methicillin-susceptible Staphylococcus aureus [MSSA; SH1000], community-acquired methicillin-resistant Staphylococcus aureus [CA-MRSA; USA 300-0114], hospital-acquired methicillin-resistant Staphylococcus aureus [HA-MRSA; ATCC 33591] and the […], Escherichia coli [MC4100], Acinetobacter baumannii [ATCC 17498] and Pseudomonas aeruginosa [PAO1].

Series [3] has as its system P. aeruginosa. In words: MBEC, biofilm eradication, P. aeruginosa. The series is classed as cell-based, Pseudomonas aeruginosa. The conditions noted are these: 24 hours, 37 °C, TSB. On the procedure: A regrowth assay was used to establish the MBEC of a compound to evaluate the antibiofilm activity.
Biofilm eradication experiments were performed using a pegged-lid microtiter plate assay to determine the MBEC values for compounds of interest, as previously described. […] Sci. Rep. 2017, 7, 2003; and Raval, Y. S., Flurin, L., Mohamed, A., Greenwood-Quaintance, K. E., Beyenal, H., & Patel, R. In Vitro Activity of Hydrogen Peroxide and Hypochlorous Acid Generated by Electrochemical Scaffolds Against Planktonic and Biofilm Bacteria. Antimicrob Agents Chemother. 2021, 65, e01966-20. Briefly, […] of mid-log phase culture diluted to ca. 10^6 CFU/mL in tryptic soy broth (TSB) was added to wells of plat-bottom 96-well plates (Thermo Scientific, 266120) and covered with 96-pegged lid (Thermo Scientific, 445497). Plates were incubated to establish bacterial biofilms after incubation at 37 °C for 24 hours. The pegged lid was then removed, washed with PBS, and transferred to another 96-well plate containing 2-fold serial dilutions of the test compounds (the “challenge plate”). The total volume in each well was […], comprising of […] of compound diluted in water/DMSO, with a starting DMSO concentration of 2.5%, and […] of TSB. Plates were incubated statically at 37 °C for 24 hours. Next, the pegged lids were transferred to a fresh 96-well plate containing […] of TSB and incubated overnight at 37 °C. MBEC values were determined as the lowest test concentration that resulted eradicated biofilm (i.e., wells displaying no turbidity in the final plate).

SMILES strings stand for the structures. Some results are limits rather than exact numbers.

Compound `CCCCCCCCCCCC[N+](C)(C)CC[N+](C)(C)CCCCCCCCCCCC` [12(2)12, reference compound] had a Lysis20 in series [1] of 16 µM. In addition, the MIC in series [2] is 2 µM. This compound also had an MBEC in series [3] greater than 250 µM.
The corresponding values for `CCCCCCCCCCCC[P+](C)(C)CC[P+](C)(C)CCCCCCCCCCC` [^MeP2P-12,12] are 8 µM, 2 µM and greater than 250 µM.
